Data set [1] can be described thus: in vivo. The following applies: dog.
Data set [2] in a line: clinical. The following applies: human, in vivo.
Description: In vivo clearance in human
The nature of data set [3]: in vivo. To be noted: rat.
A further data set is filed under the species Rattus norvegicus. The following applies: hepatocytes.
The species named for another data set is Homo sapiens. The following applies: hepatocytes.
The species named for a further data set is Canis familiaris. To be noted: dog, hepatocytes.
Data set [4] can be described thus: clinical. To be noted: human, in vivo. This is another data set of the same source.
Description: In vivo clearance in human.
Data set [5] is described as follows: in vivo. The following applies: rat. This is another data set of the same source.
Description: In vivo clearance in rat.
Data set [6] can be described thus: in vivo. The following applies: dog. This is another data set of the same source.
Description: In vivo clearance in dog.

Molecules are shown by their SMILES.

Description for Canis familiaris: In vitro clearance in dog in 1000000 cells
Description for Homo sapiens: In vitro clearance in human in 1000000 cells
Description for Rattus norvegicus: In vitro clearance in rat in 1000000 cells

Take `CC(C)(C)S(=O)(=O)C[C@@H](Cc1ccccc1)C(=O)N[C@@H](Cc1cnc[nH]1)C(=O)N[C@@H](CC1CCCCC1)[C@@H](O)[C@@H](O)C1CC1`: the clearance came out at 3 mL/min/kg in “in vivo [1]”; 19.6 mL/min/kg in the data set “clinical [2]”; 119 mL/min/kg in “in vivo [3]”; 16.6 µL/min in the data set listed under Rattus norvegicus; 19.5 µL/min in the data set filed under Homo sapiens.

`Cc1cc(=O)n(-c2ccccc2)n1C` [ANTIPYRINE]: the clearance in “in vivo [1]” was found to be 4.9 mL/min/kg; in “clinical [2]”, 0.5 mL/min/kg; in “in vivo [3]” it was 7 mL/min/kg; in the data set filed under Rattus norvegicus, 0.4 µL/min; in the data set listed under Homo sapiens, 0.1 µL/min; in the data set listed under Canis familiaris, 1 µL/min.

`COc1ccccc1Oc1c(NS(=O)(=O)c2ccc(C(C)(C)C)cc2)nc(-c2ncccn2)nc1OCCO` [BOSENTAN]: the clearance amounted to 3.7 mL/min/kg in “clinical [4]”; 55 mL/min/kg in “in vivo [5]”; 1.3 µL/min in the data set filed under Rattus norvegicus; 0.2 µL/min in the data set filed under Homo sapiens; 1.9 mL/min/kg in “in vivo [6]”; 0.2 µL/min in the data set filed under Canis familiaris.

Regarding `Cn1c(=O)c2c(ncn2C)n(C)c1=O` [CAFFEINE], the clearance in the data set “in vivo [1]” came to 2.6 mL/min/kg; in “clinical [2]”, 2 mL/min/kg; in “in vivo [3]” it was 13 mL/min/kg; in the data set listed under Rattus norvegicus, 0.6 µL/min; in the data set listed under Homo sapiens, 0.1 µL/min; in the data set listed under Canis familiaris it was 0.2 µL/min.

In the case of `COc1ccc([C@@H]2Sc3ccccc3N(CCN(C)C)C(=O)[C@@H]2OC(C)=O)cc1` [DILTIAZEM], the clearance in the data set “in vivo [5]” came out at 87.2 mL/min/kg; in the data set filed under Rattus norvegicus, 43.6 µL/min; in the data set filed under Homo sapiens it was 1.9 µL/min; in “in vivo [6]”, 46.1 mL/min/kg; in the data set filed under Canis familiaris it was 2.7 µL/min.

Take `O=C1Nc2ccc(Cl)cc2C(c2ccccc2Cl)=NC1O` (stereo not given) [LORAZEPAM]: the clearance was 26.1 mL/min/kg in the data set “in vivo [1]”; 1.1 mL/min/kg in “clinical [2]”; 27.2 mL/min/kg in “in vivo [3]”; 3.8 µL/min in the data set filed under Rattus norvegicus; 0.3 µL/min in the data set listed under Homo sapiens; 18.1 µL/min in the data set listed under Canis familiaris.

With `COCC(=O)O[C@]1(CCN(C)CCCc2nc3ccccc3[nH]2)CCc2cc(F)ccc2[C@@H]1C(C)C` [MIBEFRADIL], the clearance is 7 mL/min/kg in “clinical [4]”; 94 mL/min/kg in “in vivo [5]”; 5.4 µL/min in the data set filed under Rattus norvegicus; 0.9 µL/min in the data set listed under Homo sapiens; 36 mL/min/kg in the data set “in vivo [6]”; 6.2 µL/min in the data set filed under Canis familiaris.

Turning to `Cc1ncc2n1-c1ccc(Cl)cc1C(c1ccccc1F)=NC2` [MIDAZOLAM], the clearance in the data set “clinical [4]” is 11 mL/min/kg; in the data set “in vivo [5]”, 130 mL/min/kg; in the data set filed under Rattus norvegicus, 16.7 µL/min; in the data set filed under Homo sapiens, 4.5 µL/min.

As for `C/C(=C\c1ccc(OCCN2CCOCC2)cc1)c1ccc2c(c1)C(C)(C)CCC2(C)C` [MOFAROTENE], the clearance in the data set “clinical [4]” worked out at 11 mL/min/kg; in “in vivo [5]”, 16 mL/min/kg; in the data set filed under Rattus norvegicus, 2.3 µL/min; in the data set listed under Homo sapiens, 2 µL/min; in the data set “in vivo [6]”, 5.8 mL/min/kg; in the data set filed under Canis familiaris, 1 µL/min.

Take `C=CCN1CC[C@]23c4c5ccc(O)c4O[C@H]2C(=O)CC[C@@]3(O)[C@H]1C5` [NALOXONE]: the clearance in the data set “in vivo [1]” came to 42.5 mL/min/kg; in the data set “clinical [2]” it was 25 mL/min/kg; in the data set “in vivo [3]”, 48.8 mL/min/kg; in the data set filed under Rattus norvegicus it was 54.6 µL/min; in the data set filed under Homo sapiens, 16.7 µL/min; in the data set filed under Canis familiaris, 32.1 µL/min.

For `COC(=O)C1=C(C#N)NC(C)=C(C(=O)OC(C)C)C1c1cccc([N+](=O)[O-])c1` (stereo not given) [NILVADIPINE], the clearance in the data set “in vivo [1]” turned out to be 15.3 mL/min/kg; in the data set “clinical [2]”, 20 mL/min/kg; in the data set “in vivo [3]” it was 94 mL/min/kg; in the data set filed under Rattus norvegicus, 29.7 µL/min; in the data set filed under Homo sapiens it was 13.3 µL/min; in the data set listed under Canis familiaris, 10.9 µL/min.

As to `CCOC(=O)C1=C(C)NC(C)=C(C(=O)OC)C1c1cccc([N+](=O)[O-])c1` (stereo not given) [NITRENDIPINE], the clearance stood at 21.7 mL/min/kg in “in vivo [1]”; 18.7 mL/min/kg in the data set “clinical [2]”; 16.5 mL/min/kg in “in vivo [3]”; 24 µL/min in the data set listed under Rattus norvegicus; 12 µL/min in the data set filed under Homo sapiens; 8.1 µL/min in the data set listed under Canis familiaris.

As to `Cn1c(=O)c2[nH]cnc2n(C)c1=O.O` [THEOPHYLLINE], the clearance in “in vivo [1]” was 1.5 mL/min/kg; in “clinical [2]”, 0.6 mL/min/kg; in “in vivo [3]”, 2.2 mL/min/kg; in the data set listed under Rattus norvegicus, 0.2 µL/min; in the data set filed under Homo sapiens, 0.1 µL/min; in the data set listed under Canis familiaris, 0.2 µL/min.

As for `Cc1ccc(C(=O)c2cc(O)c(O)c([N+](=O)[O-])c2)cc1` [TOLCAPONE], the clearance turned out to be 3.3 mL/min/kg in the data set “in vivo [1]”; 2.7 mL/min/kg in the data set “clinical [2]”; 15 mL/min/kg in “in vivo [3]”; 2.6 µL/min in the data set filed under Rattus norvegicus; 1.2 µL/min in the data set filed under Homo sapiens; 1.4 µL/min in the data set listed under Canis familiaris.

Values taken from ChEMBL document CHEMBL1132496, “Combining in vitro and in vivo pharmacokinetic data for prediction of hepatic drug clearance in humans by artificial neural networks and multivariate statistical techniques” (J Med Chem, 1999).
